Experimental data from PMC11280325, “Design, Synthesis, and Characterization of Novel Thiazolidine-2,4-Dione-Acridine Hybrids as Antitumor Agents” (Molecules, 2024).

Columns and labels:
HCT116 = experiment: MTT assay, HCT116; format: cell-based, human; conditions: colorectal adenocarcinoma, 48 h incubation
Procedure: (§1) The human cancer cell lines HeLa (cervical adenocarcinoma), HCT116 (colorectal adenocarcinoma), A2780 (human ovarian adenocarcinoma), A2780cis (human ovarian adenocarcinoma cisplatin-resistant), Jurkat (acute T-lymphoblastic leukemia), and Hep G2 (hepatocellular carcinoma) were cultured in an RPMI 1640 growth medium (Biosera, Kansas City, MO, USA). The cancer cell lines MDA-MB-231 (triple-negative breast adenocarcinoma), A2058 (human melanoma), U87 (human glioblastoma), PATU 8902 (pancreas adenocarcinoma), and A549 (human lung adenocarcinoma) were cultured in a DMEM medium (Biosera, Kansas City, MO, USA). The media were supplemented with 10% fetal bovine serum (FBS) (Invitrogen, Carlsbad, CA, USA) and 1× HyClone™ Antibiotic/Antimycotic Solution (GE Healthcare, Piscataway, NJ, USA).
(§2) To evaluate the IC50 (half-maximal inhibitory concentration) and confirm the antiproliferative activity of the tested substances, we employed the colorimetric MTT assay (3-(4,5-dimethylthiazol-2-yl)-2,5-diphenyltetrazolium bromide) (Sigma-Aldrich Chemie, Steinheim, Germany). The cell lines were seeded in 96-well plates at a density of 5 × 10^3 to 10 × 10^3 cells per well. After 24 h, the tested substances, dissolved in the cultivation medium, were added to the cells at final concentrations of 5, 10, 20, and 50 µmol/L. The cells were then incubated for 48 h under standard cultivation conditions. Following the incubation period, MTT was added to each well. The MTT was metabolized by the cells into insoluble formazan crystals, which were subsequently dissolved by adding 100 µL of 10% SDS. After another 24 h, the absorbance was measured at a wavelength of 540 nm using the automated Cytation™ 3 Cell Imaging Multi-Mode Reader (Biotek, Winooski, VT, USA). The experiments were performed in at least three independent repetitions. IC50 values were calculated using a nonlinear regression method.

Bj-5ta = experiment: MTT assay, BJ-5ta non-cancerous fibroblasts; format: cell-based, human; conditions: Homo sapiens, Fibroblast, 48 h, non-cancerous dermal fibroblasts, 48 h incubation
Procedure: (§3) The non-cancerous cell line MCF-10A (human epithelial breast cells) was cultured in a DMEM F12 medium supplemented with 10% FBS (Invitrogen, Carlsbad, CA, USA), 1× HyClone™ Antibiotic/Antimycotic Solution (GE Healthcare, Piscataway, NJ, USA), insulin, hEGF, and hydrocortisone. The BJ-5ta cells (human dermal fibroblasts) were cultured in a DMEM-M199 4:1 medium mixture, supplemented with 10% FBS and hygromycin B (0.01 mg/mL). The cells were maintained under standard conditions with an atmosphere containing 5% CO2 at 37 °C. Cell viability, estimated by trypan blue exclusion, was consistently greater than 95% before each experiment.
as §2

A2780 = experiment: MTT assay, A2780; format: cell-based, human; conditions: Homo sapiens, A2780, 48 h, ovarian adenocarcinoma, 48 h incubation
Procedure: as §1, §2

A549 = experiment: MTT assay, A549; format: cell-based, human; conditions: lung adenocarcinoma, 48 h incubation
Procedure: as §1, §2

MCF-10A = experiment: MTT assay, MCF-10A non-cancerous cells; format: cell-based, human; conditions: non-cancerous epithelial breast cells, 48 h incubation
Procedure: as §3, §2

HeLa = experiment: MTT assay, HeLa; format: cell-based, human; conditions: cervical adenocarcinoma, 48 h incubation
Procedure: as §1, §2

PATU = experiment: MTT assay, PATU 8902; format: cell-based, human; conditions: pancreas adenocarcinoma, 48 h incubation
Procedure: as §1, §2

A2058 = experiment: MTT assay, A2058; format: cell-based; conditions: Homo sapiens, A2058, 48 h, human melanoma, 48 h incubation
Procedure: as §1, §2

Hep G2 = experiment: MTT assay, Hep G2; format: cell-based, human; conditions: Homo sapiens, HepG2, 48 h, hepatocellular carcinoma, 48 h incubation
Procedure: as §1, §2

Row | SMILES | IC50 (HCT116) [µM] | IC50 (Bj-5ta) [µM] | IC50 (A2780) [µM] | IC50 (A549) [µM] | IC50 (MCF-10A) [µM] | melting point | IC50 (HeLa; Homo sapiens, HeLa, 48 h) [µM] | IC50 (PATU; Homo sapiens, PaTu 8902, 48 h) [µM] | IC50 (A2058) [µM] | IC50 (Hep G2) [µM] | IC50 (HCT116; Homo sapiens, HCT-116, 48 h) [µM] | IC50 (A549; Homo sapiens, A549, 48 h) [µM] | IC50 (HeLa) [µM] | IC50 (MCF-10A; Homo sapiens, MCF-10A, 48 h) [µM] | IC50 (PATU) [µM]
1 | O=C(COc1ccc(/C=C2\SC(=O)N(Cc3c4ccccc4nc4ccccc34)C2=O)cc1)Nc1ccccc1 [Compound 7a, 2-(4-{[(5Z)-3-[(Acridin-9-yl)methyl]-2,4-dioxo-1,3-thiazolidin-5-ylidene]methyl}phenoxy)-N-phenylacetamide] | 37.6 ± 4.2 | > 50 | > 50 | > 50 | > 50 | 249 to 250 °C | 24.3 ± 3.8 | > 50 | > 50 | > 50 |  |  |  |  | 
2 | COc1cc(NC(=O)COc2ccc(/C=C3\SC(=O)N(Cc4c5ccccc5nc5ccccc45)C3=O)cc2)cc(OC)c1 [Compound 7b, 2-(4-{[(5Z)-3-[(Acridin-9-yl)methyl]-2,4-dioxo-1,3-thiazolidin-5-ylidene]methyl}phenoxy)-N-(3,5-dimethoxyphenyl)acetamide] |  | > 50 | > 50 |  | 28.8 ± 2.3 | 280 to 282 °C | 11.3 ± 2.75 | > 50 | > 50 | > 50 | 34.5 ± 2.98 | 34.6 ± 5.4 |  |  | 
3 | COc1cc(NC(=O)COc2ccc(/C=C3\SC(=O)N(Cc4c5ccccc5nc5ccccc45)C3=O)cc2)cc(OC)c1OC [Compound 7c, 2-(4-{[(5Z)-3-[(Acridin-9-yl)methyl]-2,4-dioxo-1,3-thiazolidin-5-ylidene]methyl}phenoxy)-N-(3,4,5-trimethoxyphenyl)acetamide] | > 50 | > 50 | > 50 |  | 14.5 ± 2.5 | 248 to 249 °C |  | > 50 | > 50 | > 50 |  | > 50 | 6.8 ± 2.4 |  | 
4 | O=C(COc1ccc(/C=C2\SC(=O)N(Cc3c4ccccc4nc4ccccc34)C2=O)cc1)Nc1ccc([N+](=O)[O-])cc1 [Compound 7d, 2-(4-{[(5Z)-3-[(Acridin-9-yl)methyl]-2,4-dioxo-1,3-thiazolidin-5-ylidene]methyl}phenoxy)-N-(4-nitrophenyl)acetamide] | > 50 | > 50 | > 50 |  |  | 293 to 294 °C |  | > 50 | > 50 | > 50 |  | > 50 | 20.1 ± 2.95 | > 50 | 
5 | O=C(COc1ccc(/C=C2\SC(=O)N(Cc3c4ccccc4nc4ccccc34)C2=O)cc1)Nc1ccccc1C(F)(F)F [Compound 7e, 2-(4-{[(5Z)-3-[(Acridin-9-yl)methyl]-2,4-dioxo-1,3-thiazolidin-5-ylidene]methyl}phenoxy)-N-[2-(trifluoromethyl)phenyl]acetamide] | 22.3 ± 4.6 | > 50 | > 50 |  |  | 256 to 257 °C (dec.) |  |  | > 50 | > 50 |  | > 50 | > 50 | > 50 | > 50
6 | O=C(COc1ccc(/C=C2\SC(=O)N(Cc3c4ccccc4nc4ccccc34)C2=O)cc1)Nc1cccc(C(F)(F)F)c1 [Compound 7f, 2-(4-{[(5Z)-3-[(Acridin-9-yl)methyl]-2,4-dioxo-1,3-thiazolidin-5-ylidene]methyl}phenoxy)-N-[3-(trifluoromethyl)phenyl]acetamide] |  | 32.6 ± 7.4 | > 50 | 16.4 ± 1.85 |  | 250 to 251 °C (dec.) | 6.2 ± 1.3 | 11.5 ± 2.06 | > 50 | 28.1 ± 5.5 | 8.8 ± 3.7 |  |  | 9.8 ± 1.9 | 
7 | O=C(COc1ccc(/C=C2\SC(=O)N(Cc3c4ccccc4nc4ccccc34)C2=O)cc1)Nc1cc(C(F)(F)F)cc(C(F)(F)F)c1 [Compound 7g, 2-(4-{[(5Z)-3-[(Acridin-9-yl)methyl]-2,4-dioxo-1,3-thiazolidin-5-ylidene]methyl}phenoxy)-N-[3,5-bis(trifluoromethyl)phenyl]acetamide] | 18 ± 1.2 | > 50 | > 50 |  | > 50 | 227 to 228 °C (dec.) | 20.9 ± 2.8 | > 50 | > 50 | > 50 |  | 18.9 ± 3.85 |  |  | 
8 | O=C(COc1ccc(/C=C2\SC(=O)N(Cc3cccc4cc5ccccc5nc34)C2=O)cc1)Nc1ccccc1 [Compound 8a, 2-(4-{[(5Z)-3-[(Acridin-4-yl)methyl]-2,4-dioxo-1,3-thiazolidin-5-ylidene]methyl}phenoxy)-N-phenylacetamide] |  | > 50 | > 50 |  |  | 258 to 259 °C (dec.) |  | > 50 | > 50 | > 50 | 26.9 ± 1.85 | > 50 | 21.1 ± 7.2 | > 50 | 
9 | COc1cc(NC(=O)COc2ccc(/C=C3\SC(=O)N(Cc4cccc5cc6ccccc6nc45)C3=O)cc2)cc(OC)c1 [Compound 8b, 2-(4-{[(5Z)-3-[(Acridin-4-yl)methyl]-2,4-dioxo-1,3-thiazolidin-5-ylidene]methyl}phenoxy)-N-(3,5-dimethoxyphenyl)acetamide] |  | > 50 | > 50 |  |  | 168 to 169 °C (dec.) |  | > 50 | > 50 | > 50 | > 50 | > 50 | 12 ± 2.8 | > 50 | 
10 | COc1cc(NC(=O)COc2ccc(/C=C3\SC(=O)N(Cc4cccc5cc6ccccc6nc45)C3=O)cc2)cc(OC)c1OC [Compound 8c, 2-(4-{[(5Z)-3-[(Acridin-4-yl)methyl]-2,4-dioxo-1,3-thiazolidin-5-ylidene]methyl}phenoxy)-N-(3,4,5-trimethoxyphenyl)acetamide] |  | > 50 | > 50 |  |  | 193 to 194 °C (dec.) | > 50 | > 50 | > 50 | > 50 | > 50 | > 50 |  | > 50 | 
